Results published in US5837839A, “DNA coding sequences for mevalonate Pyrophosphate decarboxylase” (Novartis Finance Corporation, priority 1996, dated 1998).

Experiments:
[1] = biological target: T1, partially purified human liver MPD (mevalonate pyrophosphate decarboxylase) (Homo sapiens, UniProt P53602); test: Inhibition of partially purified human liver MPD by phenylglyoxal; format: biochemical; conditions: partially purified enzyme; no concentration stated
T1 construct: from tissue; host or cells: human liver
T1 sequence (P53602 1-400): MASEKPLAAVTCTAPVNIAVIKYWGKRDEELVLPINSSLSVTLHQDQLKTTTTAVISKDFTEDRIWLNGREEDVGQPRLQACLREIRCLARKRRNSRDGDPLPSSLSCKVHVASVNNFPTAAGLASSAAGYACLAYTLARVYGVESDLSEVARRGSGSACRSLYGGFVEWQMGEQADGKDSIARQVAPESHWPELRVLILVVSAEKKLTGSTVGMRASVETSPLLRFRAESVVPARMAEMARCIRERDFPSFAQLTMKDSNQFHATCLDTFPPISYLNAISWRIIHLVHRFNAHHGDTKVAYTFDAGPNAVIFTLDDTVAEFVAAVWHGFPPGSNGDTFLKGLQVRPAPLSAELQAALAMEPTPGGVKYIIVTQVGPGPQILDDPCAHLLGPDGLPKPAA
Description: This agrees with the work of Jabalquinto et al., (1983) Arch. Biochem. Biophys. […] They concluded that a single arginine is near the binding site of ATP and MevPP in the chicken liver enzyme. To this end, the Arg27Lys and Arg153Lys mutants were made using the AAA lysine codon triplet and a single-stranded DNA template isolated from pO-3. These mutated cDNAs were subcloned into pET14-b and expressed like p11-4 as described above. […] The Arg27Lys mutant appears to produce lower activity compared to the parent plasmid ([…]) from which it was derived, but this may not be a significant difference. […] Antisera against MPD for the Westerns was made with material expressed in E. coli from plasmid p11-4.
Cell pellets from the various expression systems were sonicated in homogenization buffer (20 mM Tris/HCl pH 7.5, 15 mM EDTA, 15 mM EGTA, 100 μM Leupeptin, 0.75 mg/l Aprotinin, 0.1 mM PMSF) and assayed directly for enzyme activity and protein concentration. Activity was measured as the conversion of labelled mevalonate pyrophosphate into isopentenyl pyrophosphate. […] 2 ml of Econofluor-2 (New England Nuclear) was added to the assay mixture the sample was capped, shaken, and counted on a scintillation counter. Because of the organic nature of the scintillation fluid, dephosphorylated product (isopentenyl) is solubilized and counted whereas dephosphorylated substrate (mevalonic acid) is not. […]

[2] = test system: chicken liver MPD (mevalonate pyrophosphate decarboxylase); conditions: pseudo-first order kinetics; ATP and MevPP protect against inactivation; cited from earlier work

inhibition of MPD [1]: inhibited
SMILES: O=CC(=O)c1ccccc1 [phenylgloxal]
inactivation of MPD [2]: inactivated
